Results from publication PMC4564450, “Oral and inhaled p38 MAPK inhibitors: effects on inhaled LPS challenge in healthy subjects” (European Journal of Clinical Pharmacology, 2015).

Assays:
[1] = test system: IL-8 production from epithelial cells; set-up: method as in Pfizer, data on file; conditions: ref Pfizer, data on file; cited from earlier work
[2] = test system: phospho-HSP27 expression in sputum macrophages; experiment: Immunocytochemistry of sputum macrophages: phospho-HSP27; assay type: in vivo, human; conditions: study 2; PH-797804 30 mg oral or PF-03715455 20 mg inhaled; Post-LPS
Experimental: (§1) Frozen cytospins created from sputum cells were analysed for phosphorylated-Heat Shock Protein 27 (phospho-HSP27) and phospho-p38 expression in sputum macrophages. The methods are fully described in the online supplement. Phospho-p38 and phospho-HSP27 immunoreactivity is presented as percentage of the macrophage population. All analyses were carried out by blinded observers.
Frozen cytospins created from sputum cells were thawed and the cells were fixed in 4% paraformaldehyde in PBS for 10 minutes at room temperature, followed by blocking in normal serum. […] Phospho-p38 and phospho-HSP27 were detected using biotinylated goat anti-rabbit IgG secondary antibody (Vector Labs, Peterborough, UK) in conjunction with an avidin–biotin peroxidase complex (Vector Labs) and 3,3’-diaminobenzidine (DAB) substrate. […]
Digital micrographs were obtained through the use of a Nikon Eclipse 80i microscope (Nikon UK Ltd, Surrey, UK) equipped with a QImaging digital camera (Media cybernetics, Marlow, UK) and ImageProPlus 5.1 software (Media Cybernetics). Sputum macrophages (determined by morphology) were analysed for phospho-p38 and phospho-HSP27 expression following single label immunohistochemistry utilising the ImagePro Plus image analysis software; at least 200 macrophages per cytospin were counted. […]

[3] = test system: IL-6, MCP-1, MIP1β, CC16, fibrinogen and CRP levels in plasma; experiment: Inhaled LPS challenge: plasma protein biomarkers; assay type: in vivo, human; conditions: study 2; for Plasma CC16, mean / Plasma CRP, mean / Plasma Fibrinogen, mean / Plasma IL-6, mean / Plasma MCP-1, mean / Plasma MIP-1β, mean: PH-797804 30 mg oral or PF-03715455 20 mg inhaled, 6 hrs post LPS
Experimental: Blood samples were obtained in studies 2 and 3 to obtain plasma measurements of IL-6, MCP-1, MIP1β, CC16, fibrinogen and CRP levels; pre-dose and 6 h post-LPS samples were used for statistical analysis. This coincided with the timings of sputum measurements of inflammation biomarkers.
Systemic biomarkers were analysed using a similar mixed effects model; these models also adjusted for pre-dose baseline values, which were obtained 24 h prior to LPS challenge in study 2 and 30 min prior to LPS challenge in study 3.

[4] = test system: phospho-p38 expression in sputum macrophages; experiment: Immunocytochemistry of sputum macrophages: phospho-p38; assay type: in vivo, human; conditions: study 2; for mean percentage of macrophages expressing phospho-p38: PH-797804 30 mg oral or PF-03715455 20 mg inhaled, Post-LPS
Experimental: as §1
Frozen cytospins created from sputum cells were thawed and the cells were fixed in 4% paraformaldehyde in PBS for 10 minutes at room temperature, followed by blocking in normal serum. Cytospins were then incubated with the following primary antibodies overnight at 4 °C; anti-human phosphorylated-p38 (phospho-p38) MAPK (Thr180/Tyr182) antibody (Cat No. 9211S, New England Biolabs, Herts, UK) or phosphorylated-Heat Shock Protein 27 (phospho-HSP27 [Cat No. S82, New England Biolabs]) diluted 1:50 in 1.5% normal serum with 0.5% Triton X-100 (Sigma-Aldrich). Endogenous peroxidase was quenched by incubating cytospins in 3% H2O2 in methanol (0.3% for phospho-p38). Phospho-p38 and phospho-HSP27 were detected using biotinylated goat anti-rabbit IgG secondary antibody (Vector Labs, Peterborough, UK) in conjunction with an avidin–biotin peroxidase complex (Vector Labs) and 3,3’-diaminobenzidine (DAB) substrate. Cell nuclei were counterstained with Gill’s haematoxylin (Sigma-Aldrich). Omission of primary antibody in staining protocol was used as a negative control.
Digital micrographs were obtained through the use of a Nikon Eclipse 80i microscope (Nikon UK Ltd, Surrey, UK) equipped with a QImaging digital camera (Media cybernetics, Marlow, UK) and ImageProPlus 5.1 software (Media Cybernetics). Sputum macrophages (determined by morphology) were analysed for phospho-p38 and phospho-HSP27 expression following single label immunohistochemistry utilising the ImagePro Plus image analysis software; at least 200 macrophages per cytospin were counted. Phospho-p38 and phospho-HSP27 immunoreactivity was presented as percentage of the macrophage population. All analysis was carried out by blinded observers.

[5] = test system: IL-6, MPO, MCP-1 and MIP-1β in sputum supernatant; experiment: Inhaled LPS challenge: sputum supernatant protein biomarkers; assay type: in vivo, human; conditions: for Sputum IL-6, mean / Sputum MCP-1, mean / Sputum MIP-1β, mean / Sputum MPO, mean: post LPS
Experimental: A baseline sputum sample was obtained within 14 days of the first study period when subjects were administered a single dose of randomised treatment. […] Induced sputum was obtained 6 h later to coincide with the maximal inflammatory response caused by inhaled LPS. A washout period of at least 21 days followed, with subjects returning after 14 days of the washout period for induced sputum sampling; this was performed to ensure that the total cell count, total neutrophil count and total macrophage count were within the range of −80 to +100 % of the screening values. […] If these criteria were not met, then up to two repeat visits to obtain sputum were allowed, with at least 4 days between sputum inductions. The next randomised treatment day was scheduled at least 4 days after sputum induction and was identical to the first treatment day.
For each challenge, a 1-mg vial of lyophilised LPS (Escherichia coli serotype O26:B6, ref. L-2654, Sigma-Aldrich, Dorset, UK) was diluted with 4 mL of 0.9 % w/v sodium chloride. The reconstitution produced a 0.25 mg/mL solution, of which 2 mL was placed into the pre-calibrated dosimeter pot and administered via five inhalations from a breath-activated dosimeter (Mefar dosimeter MB3, Brescia, Italy). Each inhalation was performed over 3 s with a 6-s breath hold.
Sputum was induced using normal saline after inhalation of salbutamol, and processing was performed using dithiothreitol (DTT) as previously described [20]. The supernatants were stored at −80 °C for later analysis, while cells were used to produce cytoslides (Cytospin 4, Shandon, Runcorn, UK) for differential cell counting and immunocytochemistry. Cytoslides for differential cell count were fixed in methanol (Sigma) and then stained with Rapi-Diff® (GCC Diagnostics, Sandyhurst, UK) or Wright-modified Giemsa (Accustatin WG-18, Sigma-Aldrich); a minimum of 400 non-squamous cells were counted and differential cell counts obtained as percentage of total non-squamous cells. Cell viability was analysed by trypan blue exclusion. Cytoslides with % squamous cell counts <20 % were deemed to be of acceptable quality for differential cell counting. Unfixed cytoslides were wrapped in aluminium foil and stored frozen at −80 °C for immunocytochemistry.
In studies 1 and 2, sputum supernatants were analysed for interleukin 6 (IL-6), myeloperoxidase (MPO), monocyte chemotactic protein-1 (MCP-1) and macrophage inflammatory protein-1β (MIP-1 β), using electrochemiluminescent immunoassays (ECLIA) or enzyme-linked immunosorbent assays (ELISA); the manufacturers are listed in the online supplement. In study 3, sputum supernatants were analysed for IL-6, MCP-1 and MIP-1β by the same method.

[6] = healthy subjects; ref previous phase 1 studies (unpublished); cited from earlier work
[7] = Drug concentration in sputum supernatant; assay type: in vivo, human; conditions: study 2, ten subjects, PF-03715455 inhaled dose, PH-797804 oral dose
[8] = Safety: treatment emergent adverse events; assay type: in vivo, human; conditions: for safety and tolerability: single doses, healthy subjects, studies 1 and 2
Experimental: Safety was assessed in these studies by physical examinations, haematology and biochemistry measurements, ECG analysis and reporting of any adverse events.
Summary of Number ofSubjects Experiencing Treatment EmergentAdverse Events by MedDRA System Organ Class

[9] = study 2, PH-797804 30 mg oral or PF-03715455 20 mg inhaled
[10] = study 2, PF-03715455 20mg (n=27), PH-797804 30mg (n=23)
[11] = study 2, PF-03715455 20mg (n=27), PH-797804 30mg (n=23), hangover (PF-03715455), loss of libido and insomnia (PH-797804)

In the case of `CC(C)(C)c1cc(NC(=O)NCc2ccccc2Sc2ccc3nnc(-c4ccccc4SCCO)n3c2)n(-c2ccc(O)c(Cl)c2)n1` [PF-03715455], the “IL-8 production from epithelial cells” value [1] is given as “significantly inhibit”, the “mean percentage of macrophages expressing phospho-HSP27” value [2] is given as 26.89% and the “plasma IL-6, MCP-1, MIP1β and CC16 compared to placebo” value ([3]; PF-03715455 20 mg inhaled, 6 h post-LPS challenge) is given as “statistically significant reductions”. For the same compound, the “Plasma CC16, mean” value [3] was 10.19 ng/mL, the “Plasma CRP, mean” value [3] was 475.90 ng/mL and the “Plasma Fibrinogen, mean” value [3] was 2340.40 µg/mL. For the same compound, the “Plasma IL-6, mean” value [3] was 14.43 pg/mL, the “Plasma MCP-1, mean” value [3] was 340.30 pg/mL and the “Plasma MIP-1β, mean” value [3] was 71.55 pg/mL. The “attenuation of the baseline measurements (macrophages expressing phospho-P38 and phospho-HSP27)” value ([4]; PF-03715455 20 mg inhaled) was 45–50%, the “mean percentage of macrophages expressing phospho-p38” value [4] was 25.03% and the “sputum supernatant IL-6, MPO, MCP-1 and MIP-1β levels compared to placebo” value [5, 9] was “no effects”. The “Sputum IL-6, mean” value [5, 9] was 91.67 pg/mL, the “Sputum MCP-1, mean” value [5, 9] was 115.38 pg/mL and the “Sputum MIP-1β, mean” value [5, 9] was 396.35 pg/mL. For the same compound, the “Sputum MPO, mean” value [5, 9] was 937.04 ng/mL, the “time of maximum systemic concentration (tmax)” value [6] was roughly 30 min and the “geometric mean sputum concentration” value [7] was 20 nM. For the same compound, the “sputum concentration, range” value [7] was 4 to 73 nM, the safety and tolerability [8] was “safe and generally well tolerated” and the “Number of subjects with treatment emergent AE: Eye Disorders” value (from here on “Number of subjects … Eye Disorders”) [8, 10] was 0. The “Number of subjects with treatment emergent AE: Gastrointestinal Disorders” value (shortened to “Number of subjects … Gastrointestinal Disorders”) [8, 10] was 2, the “Number of subjects with treatment emergent AE: General Disorders and Administration Site Conditions” value [8, 10] was 3 and the “Number of subjects with treatment emergent AE: Immune system disorders” value [8, 10] was 0. The “Number of subjects with treatment emergent AE: Injury, Poisoning and Procedural Complications” value (“Number … Poisoning and Procedural Complications” for short) [8, 10] was 0, the “Number of subjects with treatment emergent AE: Musculoskeletal and Connective tissue disorders” value [8, 10] was 0 and the “Number of subjects with treatment emergent AE: Nervous system disorders” value (“Number of subjects … Nervous system disorders” below) [8, 10] was 5. For the same compound, the “Number of subjects with treatment emergent AE: Respiratory, thoracic and mediastinal disorders” value (“Number … thoracic and mediastinal disorders” for short) [8, 10] was 2, the “Number of subjects with treatment emergent AE: Skin and subcutaneous tissue disorders” value (from here on “Number … Skin and subcutaneous tissue disorders”) [8, 10] was 1 and the “Number of subjects with treatment emergent AE: Vascular disorders” value [8, 10] was 1. For the same compound, the “Number of subjects with treatment emergent AE: Psychiatric disorders” value (“Number of subjects … Psychiatric disorders” below) [8, 11] was 1 and the AE requiring withdrawal ([8]; study 2, one subject, 5 days after dosing, investigator did not consider it related) was “cellulitis”.
In the case of `CNC(=O)c1ccc(C)c(-n2c(C)cc(OCc3ccc(F)cc3F)c(Br)c2=O)c1` [PH-797804], the “IL-8 production from epithelial cells” value [1] is listed as “significantly inhibit”, the “mean percentage of macrophages expressing phospho-HSP27” value [2] is listed as 42.27% and the “Plasma CC16, mean” value [3] is listed as 9.34 ng/mL. The “Plasma CRP, mean” value [3] was 462.10 ng/mL, the “Plasma Fibrinogen, mean” value [3] was 2172.70 µg/mL and the “Plasma IL-6, mean” value [3] was 5.47 pg/mL. The “Plasma MCP-1, mean” value [3] was 261.50 pg/mL, the “Plasma MIP-1β, mean” value [3] was 33.82 pg/mL and the “plasma IL-6, MIP1β, MCP-1, CC16 and CRP levels compared to placebo” value ([3]; PH-797804 30 mg oral, 6 h post-LPS challenge) was “statistically significant reductions”. For the same compound, the “mean percentage of macrophages expressing phospho-p38” value [4] was 38.00%, the “Sputum IL-6, mean” value ([5]; study 1, PH-797804 30 mg oral) was 29.66 pg/mL and the “Sputum MCP-1, mean” value ([5]; study 1, PH-797804 30 mg oral) was 155.07 pg/mL. For the same compound, the “Sputum MIP-1β, mean” value ([5]; study 1, PH-797804 30 mg oral) was 330.54 pg/mL, the “Sputum MPO, mean” value ([5]; study 1, PH-797804 30 mg oral) was 669.06 ng/mL and the “sputum supernatant cytokine levels compared to placebo” value ([5]; study 1, PH-797804 30 mg oral, trends towards significance for MCP-1 and MPO) was “did not significantly inhibit”. For the same compound, the “sputum supernatant IL-6, MPO, MCP-1 and MIP-1β levels compared to placebo” value [5, 9] was “significantly reduced”, the “Sputum IL-6, mean” value [5, 9] was 69.02 pg/mL and the “Sputum MCP-1, mean” value [5, 9] was 133.41 pg/mL. The “Sputum MIP-1β, mean” value [5, 9] was 609.10 pg/mL, the “Sputum MPO, mean” value [5, 9] was 485.28 ng/mL and the “time of maximum systemic concentration (tmax)” value [6] was “approximately 24 h”. The “geometric mean sputum concentration” value [7] was 4 nM, the “sputum concentration, range” value [7] was 2 to 7 nM and the safety and tolerability [8] was “safe and generally well tolerated”. For the same compound, the “Number of subjects … Eye Disorders” value ([8]; study 1, PH-797804 30mg (n=17)) was 1, the “Number of subjects … Gastrointestinal Disorders” value ([8]; study 1, PH-797804 30mg (n=17)) was 0 and the “Number of subjects with treatment emergent AE: General Disorders and Administration Site Conditions” value ([8]; study 1, PH-797804 30mg (n=17)) was 1. For the same compound, the “Number of subjects with treatment emergent AE: Infections and infestations” value ([8]; study 1, PH-797804 30mg (n=17)) was 1, the “Number … Poisoning and Procedural Complications” value ([8]; study 1, PH-797804 30mg (n=17)) was 1 and the “Number of subjects with treatment emergent AE: Investigation (raised blood potassium)” value ([8]; study 1, PH-797804 30mg (n=17)) was 0. For the same compound, the “Number of subjects with treatment emergent AE: Musculoskeletal and Connective tissue disorders” value ([8]; study 1, PH-797804 30mg (n=17)) was 1, the “Number of subjects … Nervous system disorders” value ([8]; study 1, PH-797804 30mg (n=17)) was 2 and the “Number … thoracic and mediastinal disorders” value ([8]; study 1, PH-797804 30mg (n=17)) was 0. The “Number … Skin and subcutaneous tissue disorders” value ([8]; study 1, PH-797804 30mg (n=17)) was 0, the “Number of subjects … Psychiatric disorders” value ([8]; study 1, PH-797804 30mg (n=17), event was insomnia lasting 1 hr) was 1 and the “Number of subjects … Eye Disorders” value [8, 10] was 1. For the same compound, the “Number of subjects … Gastrointestinal Disorders” value [8, 10] was 0, the “Number of subjects with treatment emergent AE: General Disorders and Administration Site Conditions” value [8, 10] was 3 and the “Number of subjects with treatment emergent AE: Immune system disorders” value [8, 10] was 0. The “Number of subjects with treatment emergent AE: Infections and infestations” value [8, 10] was 2, the “Number … Poisoning and Procedural Complications” value [8, 10] was 1 and the “Number of subjects with treatment emergent AE: Musculoskeletal and Connective tissue disorders” value [8, 10] was 0. For the same compound, the “Number of subjects … Nervous system disorders” value [8, 10] was 8, the “Number … thoracic and mediastinal disorders” value [8, 10] was 3 and the “Number … Skin and subcutaneous tissue disorders” value [8, 10] was 0. For the same compound, the “Number of subjects with treatment emergent AE: Vascular disorders” value [8, 10] was 0 and the “Number of subjects … Psychiatric disorders” value [8, 11] was 2.
